We go through 29 compounds from ChEMBL document CHEMBL1145864, “Synthesis and structure-activity relationship of a new series of COX-2 selective inhibitors: 1,5-diarylimidazoles” (J Med Chem, 2003).

Where only a bound is given, the exact number is not on record here.

Test [1] addresses T1, Prostaglandin G/H synthase 2 (Homo sapiens) (UniProt P35354).
T1 sequence (whole entry): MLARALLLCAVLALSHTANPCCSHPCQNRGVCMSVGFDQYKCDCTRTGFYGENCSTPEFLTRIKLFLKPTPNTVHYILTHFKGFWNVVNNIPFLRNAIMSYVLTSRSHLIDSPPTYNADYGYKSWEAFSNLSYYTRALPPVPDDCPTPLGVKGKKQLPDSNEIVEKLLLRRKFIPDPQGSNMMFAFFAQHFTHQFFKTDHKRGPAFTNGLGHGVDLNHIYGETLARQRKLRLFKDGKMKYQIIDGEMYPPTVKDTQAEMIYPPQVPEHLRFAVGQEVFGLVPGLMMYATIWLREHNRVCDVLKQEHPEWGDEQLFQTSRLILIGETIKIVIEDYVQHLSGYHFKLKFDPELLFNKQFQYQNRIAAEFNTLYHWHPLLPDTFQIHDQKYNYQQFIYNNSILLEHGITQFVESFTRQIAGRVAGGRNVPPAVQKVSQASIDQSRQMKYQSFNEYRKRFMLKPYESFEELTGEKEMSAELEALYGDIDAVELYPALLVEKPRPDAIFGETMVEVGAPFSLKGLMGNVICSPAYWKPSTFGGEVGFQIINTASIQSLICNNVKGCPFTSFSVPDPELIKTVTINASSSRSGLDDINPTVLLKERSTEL
Particulars: Blood; at 10 µM.
Description: Inhibition of Prostaglandin G/H synthase 2 (COX-2) in human whole blood at 10 uM

The target of test [2] is Prostaglandin G/H synthase 1 (Homo sapiens, UniProt P23219). It counts as cell-based, U-937.
Sequence of Prostaglandin G/H synthase 1 (P23219 whole entry): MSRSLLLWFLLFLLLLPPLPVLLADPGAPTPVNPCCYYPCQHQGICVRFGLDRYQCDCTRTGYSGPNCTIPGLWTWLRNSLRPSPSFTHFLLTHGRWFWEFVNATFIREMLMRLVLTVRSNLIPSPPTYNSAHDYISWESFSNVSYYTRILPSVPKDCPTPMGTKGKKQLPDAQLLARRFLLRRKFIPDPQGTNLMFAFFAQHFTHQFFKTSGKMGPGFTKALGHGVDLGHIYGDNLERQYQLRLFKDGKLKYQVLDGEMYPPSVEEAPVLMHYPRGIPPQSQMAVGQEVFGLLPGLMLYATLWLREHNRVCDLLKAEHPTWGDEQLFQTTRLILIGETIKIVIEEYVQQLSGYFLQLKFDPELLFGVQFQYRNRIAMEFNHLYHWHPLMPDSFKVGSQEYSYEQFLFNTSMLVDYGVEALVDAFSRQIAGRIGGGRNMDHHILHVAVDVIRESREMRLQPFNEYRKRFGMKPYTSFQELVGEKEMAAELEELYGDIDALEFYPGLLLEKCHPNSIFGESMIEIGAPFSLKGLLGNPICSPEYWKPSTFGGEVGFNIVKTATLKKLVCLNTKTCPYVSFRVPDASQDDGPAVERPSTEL
Description: In vitro inhibitory activity against human Prostaglandin G/H synthase 1 (COX-1) in U-937 cells

In test [1], `CS(=O)(=O)c1ccc(-n2cncc2-c2ccc(F)cc2)cc1` yielded an inhibition of 56.9%. The compound further gave an IC50 in test [2] above 10 µM.
With `CC(C)Oc1ccc(-c2c(Cl)ncn2-c2ccc(S(C)(=O)=O)cc2)cc1`, in test [2], the IC50 was above 10 µM.
In test [2], `CC(=O)Nc1ccc(-c2c(Cl)ncn2-c2ccc(S(C)(=O)=O)cc2)cc1` had a half-maximal inhibitory concentration (IC50) above 10 µM.
Regarding `CS(=O)(=O)c1ccc(-n2cnc(Cc3ccccc3)c2-c2ccc(F)cc2)cc1`, in test [1], the inhibition was 60.5%. In test [2], this compound came in with an IC50 above 10 µM.
Take `CS(=O)(=O)c1ccc(-c2c(Cl)nc(Cl)n2-c2ccc(F)cc2)cc1`: in test [1], the inhibition was 51.6%. This compound also registered a concentration for half-maximal inhibition (IC50) in test [2] above 10 µM.
In test [1], `CS(=O)(=O)c1ccc(-n2c(CO)nc(Cl)c2-c2ccc(F)cc2)cc1` gave an inhibition of 2.4%. For the same compound, the IC50 in test [2] was above 10 µM.
Compound `CS(=O)(=O)c1ccc(-n2c(Cl)nc(Cl)c2-c2ccc(F)cc2)cc1` registered an inhibition in test [1] of 0%. Moreover, the IC50 in test [2] was above 10 µM.
In turn, `CCc1ncn(-c2ccc(S(C)(=O)=O)cc2)c1-c1ccc(F)cc1` displayed an inhibition in test [1] of 3.8%. The concentration for half-maximal inhibition (IC50) in test [2] is above 10 µM.
For `CCS(=O)(=O)c1ccc(-c2c(Cl)ncn2-c2ccc(S(C)(=O)=O)cc2)cc1`, the IC50 in test [2] is above 10 µM.
As for `CS(=O)(=O)c1ccc(-c2c(Cl)ncn2-c2ccc(F)cc2)cc1`, in test [1], the inhibition stood at 15.3%. The same compound gave an IC50 in test [2] above 10 µM.
In test [1], `COC(=O)c1ncc(-c2ccc(S(C)(=O)=O)cc2)n1-c1ccc(F)cc1` displayed an inhibition of 39.1%. The compound further yielded an IC50 in test [2] above 10 µM.
In turn, `CS(=O)(=O)c1ccc(-n2cnc(Cl)c2-c2ccc(OC(F)(F)F)cc2)cc1` came in with an IC50 in test [2] above 10 µM.
Take `Cc1cc(-c2c(Cl)ncn2-c2ccc(S(C)(=O)=O)cc2)ccc1Cl`: the inhibition in test [1] was found to be 100%. Besides, the half-maximal inhibitory concentration (IC50) in test [2] was found to be 4 µM.
`C=CCc1ncn(-c2ccc(S(C)(=O)=O)cc2)c1-c1ccc(F)cc1` had an inhibition in test [1] of 3.4%. Also, in test [2], the IC50 was above 10 µM.
`CS(=O)(=O)c1ccc(-c2cncn2-c2ccc(F)cc2)cc1` gave an inhibition in test [1] of 63.4%. Also, the IC50 in test [2] is above 10 µM.
Turning to `CCOc1cc(OCC)cc(-c2c(Cl)ncn2-c2ccc(S(C)(=O)=O)cc2)c1`, in test [1], the inhibition came out at 0%. In test [2], this compound had an IC50 above 10 µM.
In test [2], `CS(=O)(=O)c1ccc(-n2cnc(Cl)c2-c2cc3ccccc3o2)cc1` displayed a half-inhibitory concentration (IC50) above 1 µM.
As to `CS(=O)(=O)c1ccc(-c2cnc(C(=O)c3ccccc3)n2-c2ccc(F)cc2)cc1`, the inhibition in test [1] is 95%. Further, the half-inhibitory concentration (IC50) in test [2] is above 10 µM.
For the compound `CCCCCc1ncn(-c2ccc(S(C)(=O)=O)cc2)c1-c1ccc(F)cc1`, the inhibition in test [1] stood at 64.4%. In addition, the IC50 in test [2] is above 10 µM.
`CS(=O)(=O)c1ccc(-c2cnc(CO)n2-c2ccc(F)cc2)cc1` showed an inhibition in test [1] of 8.1%. In test [2], the IC50 was above 10 µM.
In the same order, the values of `CS(=O)(=O)c1ccc(-c2cnc(CF)n2-c2ccc(F)cc2)cc1` are 16.8% and above 10 µM.
The compound `CS(=O)(=O)c1ccc(-n2c(-c3ccc(F)cc3)cnc2C(=O)c2ccccc2)cc1` gave an inhibition in test [1] of 0%. The IC50 in test [2] was above 10 µM.
In the same order, the values of `Cc1nc(Cl)n(-c2ccc(F)cc2)c1-c1ccc(S(C)(=O)=O)cc1` are 42.6% and above 10 µM.
As to `CS(=O)(=O)c1ccc(-n2c(-c3ccc(F)cc3)cnc2CO)cc1`, in test [1], the inhibition is 27.4%. The IC50 in test [2] was above 10 µM.
Turning to `CS(=O)(=O)c1ccc(-n2c(-c3ccc(F)cc3)cnc2Cl)cc1`, in test [2], the IC50 is above 10 µM.
`CC1Cc2cc(-c3c(Cl)ncn3-c3ccc(S(C)(=O)=O)cc3)ccc2O1` (stereo unspecified) yielded an inhibition in test [1] of 59.9%. Besides, the 50% inhibitory concentration (IC50) in test [2] is above 10 µM.
`CS(=O)(=O)c1ccc(-c2c(Br)ncn2-c2ccc(F)cc2)cc1` gave an inhibition in test [1] of 36%. In test [2], this compound had a 50% inhibitory concentration (IC50) above 10 µM.
In test [1], `CS(=O)(=O)c1ccc(-n2cnc(Cl)c2-c2cc(F)cc(F)c2)cc1` displayed an inhibition of 61.6%. Moreover, the IC50 in test [2] was above 10 µM.
Turning to `CS(=O)(=O)c1ccc(-n2cnc(Cl)c2-c2cc(Br)co2)cc1`, in test [2], the half-inhibitory concentration (IC50) was above 1 µM.

Broadly, the inhibition is the percentage by which the read-out fell short of the control. Read a low inhibition as a weak effect. What is called IC50 is the concentration needed to halve the response being measured.
